# Test results published in PubChem BioAssay AID1963874 (Molecular Pharmacology Branch, DTP, NCI, 2024).
# System: 253994-281-T-J1-PDC KRAS-mutant spheroids with HUVEC/MSC, viability
# Test: Anticancer human tumor 253994-281-T-J1-PDC patient-derived colorectal carcinoma cell line growth inhibition [KRAS2]
# Conditions: for IC50: curve of first compound; for viability, T/C: stronger effect = lower value
# Procedure, shortened: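 KRAS-mutant tumor cells were grown as spheroids with HUVEC endothelial cells and human MSCs as stroma. Targeted agents were tested alone and with KRAS pathway inhibitors. Doses started at or near clinical Cmax, or 10 microM, descending half-log.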
# [1] = second compound 0.1 µM, first compound 0.0316 µM
# [2] = second compound 0.1 µM, first compound 0.1 µM
# [3] = second compound 0.1 µM, first compound 0.316 µM
# [4] = second compound 0.1 µM, first compound 1 µM
# [5] = second compound 0.1 µM, first compound 3.16 µM
# [6] = second compound 0.1 µM, first compound 10 µM
# [7] = second compound 0.316 µM, first compound 0.0316 µM
# [8] = second compound 0.316 µM, first compound 0.1 µM
# [9] = second compound 0.316 µM, first compound 0.316 µM
# [10] = second compound 0.316 µM, first compound 1 µM
# [11] = second compound 0.316 µM, first compound 3.16 µM
# [12] = second compound 0.316 µM, first compound 10 µM
# [13] = second compound 1 µM, first compound 0.0316 µM
# [14] = second compound 1 µM, first compound 0.1 µM
# [15] = second compound 1 µM, first compound 0.316 µM
# [16] = second compound 1 µM, first compound 1 µM
# [17] = second compound 1 µM, first compound 3.16 µM
# [18] = second compound 1 µM, first compound 10 µM
# [19] = second compound 3.16 µM, first compound 0.0316 µM
# [20] = second compound 3.16 µM, first compound 0.1 µM
# [21] = second compound 3.16 µM, first compound 0.316 µM
# [22] = second compound 3.16 µM, first compound 1 µM
# [23] = second compound 3.16 µM, first compound 3.16 µM
# [24] = second compound 3.16 µM, first compound 10 µM
# [25] = second compound 10 µM, first compound 0.0316 µM
# [26] = second compound 10 µM, first compound 0.1 µM
# [27] = second compound 10 µM, first compound 0.316 µM
# [28] = second compound 10 µM, first compound 1 µM
# [29] = second compound 10 µM, first compound 3.16 µM
# [30] = second compound 10 µM, first compound 10 µM
# 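Also: spheroids exposed to agents for seven days before readout.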
# 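For viability, T/C in this document: percent of DMSO vehicle control viability.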
SMILES,IC50 (second compound 0.1 µM) [nM],IC50 (second compound 0.316 µM) [nM],IC50 (second compound 1 µM) [nM],IC50 (second compound 3.16 µM) [nM],"viability, T/C [1] [%]","viability, T/C [2] [%]","viability, T/C [3] [%]","viability, T/C [4] [%]","viability, T/C [5] [%]","viability, T/C [7] [%]","viability, T/C [8] [%]","viability, T/C [9] [%]","viability, T/C [10] [%]","viability, T/C [11] [%]","viability, T/C [13] [%]","viability, T/C [14] [%]","viability, T/C [15] [%]","viability, T/C [16] [%]","viability, T/C [17] [%]","viability, T/C [19] [%]",also measured
CC1OCC2(CCN(c3cnc(Sc4ccnc(N)c4Cl)c(N)n3)CC2)C1N (stereo not given) + C=CC(=O)N1CCN(c2nc(=O)n(-c3c(C)ccnc3C(C)C)c3nc(-c4c(O)cccc4F)c(F)cc23)C(C)C1,8950,6560,> 10000,9850,89.8,87.4,81.8,82.3,70.7,89.5,88.3,89.3,70.6,60.4,84.2,90.5,77,82.7,60.6,80.5,"IC50 (second compound 10 µM): > 10000 nM; viability, T/C [6]: 47.6%; viability, T/C [12]: 44.6%; viability, T/C [18]: 51.6%; viability, T/C [20]: 74.9%; viability, T/C [21]: 75.6%; viability, T/C [22]: 72.4%; viability, T/C [23]: 63.4%; viability, T/C [24]: 49.8%; viability, T/C [25]: 85.1%; viability, T/C [26]: 75.2%; viability, T/C [27]: 74%; viability, T/C [28]: 69.6%; viability, T/C [29]: 57%; viability, T/C [30]: 51.5%"
Cn1nccc1Nc1nccc(-c2cc3c(s2)C(C)(C)N(CCN2CCOCC2)C3=O)n1 + C=CC(=O)N1CCN(c2nc(=O)n(-c3c(C)ccnc3C(C)C)c3nc(-c4c(O)cccc4F)c(F)cc23)C(C)C1,2390,3040,2770,2480,97.8,105,85.6,68.6,45,102,110,86.3,78.7,46.7,90.2,87.6,81.7,73.6,46.3,87,"IC50 (second compound 10 µM): 3000 nM; viability, T/C [6]: 26.1%; viability, T/C [12]: 32.8%; viability, T/C [18]: 26.7%; viability, T/C [20]: 94.2%; viability, T/C [21]: 86.4%; viability, T/C [22]: 72.1%; viability, T/C [23]: 44.1%; viability, T/C [24]: 33.8%; viability, T/C [25]: 84.2%; viability, T/C [26]: 80.5%; viability, T/C [27]: 96.7%; viability, T/C [28]: 75%; viability, T/C [29]: 49.6%; viability, T/C [30]: 35.4%"
CC(=O)OC12COC1CC(O)C1(C)C(=O)C(O)C3=C(C)C(OC(=O)C(O)C(NC(=O)OC(C)(C)C)c4ccccc4)CC(O)(C(OC(=O)c4ccccc4)C21)C3(C)C (stereo not given) + C=CC(=O)N1CCN(c2nc(OCC3CCCN3C)nc3c2CCN(c2cccc4cccc(C)c24)C3)CC1CC#N,28,27.6,27.6,27.3,46.6,31.7,40,27.6,28,44.5,33.5,29,27.2,26.4,46.3,28.9,26,28.1,29.5,45.7,"IC50 (second compound 0.0316 µM): 32.8 nM; viability, T/C (second compound 0.0316 µM, first compound 0.01 µM): 96.4%; viability, T/C (second compound 0.0316 µM, first compound 0.0316 µM): 50.4%; viability, T/C (second compound 0.0316 µM, first compound 0.1 µM): 33.6%; viability, T/C (second compound 0.0316 µM, first compound 0.316 µM): 28.1%; viability, T/C (second compound 0.0316 µM, first compound 1 µM): 28%; viability, T/C (second compound 0.0316 µM, first compound 3.16 µM): 33.7%; viability, T/C (second compound 0.1 µM, first compound 0.01 µM): 80.4%; viability, T/C (second compound 0.316 µM, first compound 0.01 µM): 85.4%; viability, T/C (second compound 1 µM, first compound 0.01 µM): 77.7%; viability, T/C (second compound 3.16 µM, first compound 0.01 µM): 79.3%; viability, T/C [20]: 31.4%; viability, T/C [21]: 27.5%; viability, T/C [22]: 29.3%; viability, T/C [23]: 28.1%"
